Experimental findings from patent US8828985B2, “Carbamate and urea inhibitors of 11-beta-hydroxysteroid dehydrogenase 1” (Vitae Pharmaceuticals, Inc., priority 2008, dated 2014) are described below.

The target in experiment [1] is T1, purified recombinant 11β-HSD1 (Homo sapiens, UniProt P28845).
T1 construct: made in house; host or cells: E. coli
Description: Biological Test Example 1: inhibition of purified 11β-HSD1, Scintillation Proximity Assay. The conditions noted are these: purified recombinant 11β-HSD1 (expressed in E. coli), SPA; read-out: Biological Test Example 1 IC50 Range. It is filed as biochemical. As to the method:
The inhibition of purified 11β-HSD1 by compounds of Formula I is measured using a Scintillation Proximity Assay. […] The reaction is then incubated for 90 minutes, and stopped by adding 50 μl of SPA bead mix (18-β-glycyrrhetinic acid, 10 μM final, 5 mg/ml protein A coated YSi SPA beads, and 1 ug/ml α-cortisol antibody (East Coast Biologics)). The plate is shaken for 120 minutes, and the radioactivity corresponding to ^3H cortisol is measured on a Wallac Microbeta.
(In general: SPA uses beads or plates that emit light when radiolabelled molecules are held near them.)

The target of experiment [2] is T2, human 11β-HSD1 (Homo sapiens, UniProt P28845). The following applies: at 100 nm.
Experiment [3] has as its target T2, human 11β-HSD1. Description: biochemical. The following applies: Biological Test Example 2 IC50 Range, microsomes from CHO cells overexpressing human 11β-HSD1, SPA.

T1 sequence (P28845 whole entry, species assumed): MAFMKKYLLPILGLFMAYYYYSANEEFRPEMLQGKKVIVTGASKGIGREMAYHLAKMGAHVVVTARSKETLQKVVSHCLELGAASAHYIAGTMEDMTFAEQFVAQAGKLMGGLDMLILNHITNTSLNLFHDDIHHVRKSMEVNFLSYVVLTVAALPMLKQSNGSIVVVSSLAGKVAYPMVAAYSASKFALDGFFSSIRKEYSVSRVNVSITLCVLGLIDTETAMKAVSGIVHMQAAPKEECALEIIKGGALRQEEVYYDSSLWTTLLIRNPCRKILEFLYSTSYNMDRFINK
T2 sequence (P28845 whole entry): as the sequence (P28845 whole entry, species assumed) above

A word on the IC50: it is the concentration needed to halve the response being measured. Regarding `CC(C)(C)OC(=O)N1CCC2CN(C(=O)OC3C4CC5CC(C4)CC3C5)CC21` (racemic) [Example 11, (±)-1-tert-butyl 5-(2-adamantyl) hexahydropyrrolo[3,4-b]pyrrole-1,5-dicarboxylate], the concentration for half-maximal inhibition (IC50) in experiment [1] is < 100 nM.

Take `CC(C)COC(=O)NC1CCN(C(=O)OC2C3CC4CC2CC(C(N)=O)(C4)C3)C1` (single isomer, unassigned) [Example 18 Isomer 2, (trans-1-carbamoyl-4-adamantyl) (3R-(isobutoxycarbonylamino)pyrrolidine-1-carboxylate)]: the “Biological Test Example 2 Average % inhibition at 100 nm” value in experiment [2] was 95.0%. In addition, the IC50 in experiment [3] is < 100 nM.

Turning to `CC1(NC(=O)OC(C)(C)C)CCN(C(=O)OC2C3CC4CC2CC(C(N)=O)(C4)C3)C1` (single isomer, unassigned) [Example 22 Isomer 1, (cis-1-carbamoyl-4-adamantyl) 3-(tert-butoxycarbonylamino)-3-methylpyrrolidine-1-carboxylate], the “Biological Test Example 2 Average % inhibition at 100 nm” value in experiment [2] is listed as 15.7%. The 50% inhibitory concentration (IC50) in experiment [3] is > 100 nM.

In the case of `CC1(NC(=O)OC(C)(C)C)CCN(C(=O)OC2C3CC4CC2CC(C(N)=O)(C4)C3)C1` (single isomer, unassigned) [Example 22 Isomer 2, (trans-1-carbamoyl-4-adamantyl) 3-(tert-butoxycarbonylamino)-3-methylpyrrolidine-1-carboxylate], the “Biological Test Example 2 Average % inhibition at 100 nm” value in experiment [2] worked out at 95.5%. Besides, the half-maximal inhibitory concentration (IC50) in experiment [3] is < 100 nM.

For `CC1(NC(=O)OC(C)(C)C)CCN(C(=O)OC2C3CC4CC2CC(C(N)=O)(C4)C3)C1` (single isomer, unassigned) [Example 22 Isomer 2.1, (trans-1-carbamoyl-4-adamantyl) 3-(tert-butoxycarbonylamino)-3-methylpyrrolidine-1-carboxylate], the “Biological Test Example 2 Average % inhibition at 100 nm” value in experiment [2] was 88.5%. Further, the 50% inhibitory concentration (IC50) in experiment [3] is < 100 nM.

Take `CC1(NC(=O)OC(C)(C)C)CCN(C(=O)OC2C3CC4CC2CC(C(N)=O)(C4)C3)C1` (single isomer, unassigned) [Example 22 Isomer 2.2, (trans-1-carbamoyl-4-adamantyl) 3-(tert-butoxycarbonylamino)-3-methylpyrrolidine-1-carboxylate]: in experiment [2], the “Biological Test Example 2 Average % inhibition at 100 nm” value was 82.7%. Besides, the half-maximal inhibitory concentration (IC50) in experiment [3] is < 100 nM.

With `CC(C)(C)OC(=O)N1CCC2CN(C(=O)OC3C4CC5CC3CC(C(N)=O)(C5)C4)CC21` (single isomer, unassigned) [Example 23 Isomer 1, 1-tert-butyl 5-(cis-1-carbamoyl-4-adamantyl)hexahydropyrrolo[3,4-b]pyrrole-1,5-dicarboxylate], in experiment [2], the “Biological Test Example 2 Average % inhibition at 100 nm” value was 35.4%. Further, the IC50 in experiment [3] was > 100 nM.

Take `CC(C)(C)OC(=O)N1CCC2CN(C(=O)OC3C4CC5CC3CC(C(N)=O)(C5)C4)CC21` (single isomer, unassigned) [Example 23 Isomer 2, 1-tert-butyl 5-(trans-1-carbamoyl-4-adamantyl)hexahydropyrrolo[3,4-b]pyrrole-1,5-dicarboxylate]: in experiment [2], the “Biological Test Example 2 Average % inhibition at 100 nm” value amounted to 94.4%. The 50% inhibitory concentration (IC50) in experiment [3] was < 100 nM.

Take `CC(C)OC(=O)N[C@@H]1CCN(C(=O)OC2C3CC4CC2CC(C(N)=O)(C4)C3)C1` (single isomer, unassigned) [Example 24 Isomer 1]: the “Biological Test Example 2 Average % inhibition at 100 nm” value in experiment [2] was determined as 2.0%. The concentration for half-maximal inhibition (IC50) in experiment [3] was > 100 nM.

Take `CC(C)OC(=O)N[C@@H]1CCN(C(=O)OC2C3CC4CC2CC(C(N)=O)(C4)C3)C1` (single isomer, unassigned) [Example 24 Isomer 2]: in experiment [2], the “Biological Test Example 2 Average % inhibition at 100 nm” value was determined as 87.4%. For the same compound, in experiment [3], the IC50 was < 100 nM.

Consider `NC(=O)C12CC3CC(C1)C(OC(=O)N1CC[C@@H](NC(=O)OCc4ccccc4)C1)C(C3)C2` (single isomer, unassigned) [Example 25 Isomer 1], for which the “Biological Test Example 2 Average % inhibition at 100 nm” value in experiment [2] turned out to be 45.6%. In experiment [3], the half-inhibitory concentration (IC50) is > 100 nM.

Turning to `NC(=O)C12CC3CC(C1)C(OC(=O)N1CC[C@@H](NC(=O)OCc4ccccc4)C1)C(C3)C2` (single isomer, unassigned) [Example 25 Isomer 2], the “Biological Test Example 2 Average % inhibition at 100 nm” value in experiment [2] is recorded as 91.3%. In addition, the IC50 in experiment [3] was < 100 nM.

For `CC(C)(C)OC(=O)NC1(Cc2ccccc2)CCN(C(=O)OC2C3CC4CC2CC(C(N)=O)(C4)C3)C1` (single isomer, unassigned) [Example 29 Isomer 1, (cis-1-carbamoyl-4-adamantyl) 3-benzyl-3-(tert-butoxycarbonylamino)pyrrolidine-1-carboxylate], the “Biological Test Example 2 Average % inhibition at 100 nm” value in experiment [2] is reported as 41.2%. Also, in experiment [3], the IC50 is > 100 nM.

Turning to `CC(C)(C)OC(=O)NC1(Cc2ccccc2)CCN(C(=O)OC2C3CC4CC2CC(C(N)=O)(C4)C3)C1` (single isomer, unassigned) [Example 29 Isomer 2, (trans-1-carbamoyl-4-adamantyl) 3-benzyl-3-(tert-butoxycarbonylamino)pyrrolidine-1-carboxylate], the “Biological Test Example 2 Average % inhibition at 100 nm” value in experiment [2] came to 90.8%. For the same compound, the IC50 in experiment [3] is < 100 nM.

`CC(C)(C)OC(=O)NC1(Cc2ccccc2)CCN(C(=O)OC2C3CC4CC2CC(C(N)=O)(C4)C3)C1` (single isomer, unassigned) [Example 29 Isomer 2.1, (trans-1-carbamoyl-4-adamantyl) 3-benzyl-3-(tert-butoxycarbonylamino)pyrrolidine-1-carboxylate]: in experiment [2], the “Biological Test Example 2 Average % inhibition at 100 nm” value was determined as 96.9%. Besides, the IC50 in experiment [3] was < 100 nM.

For `CC(C)(C)OC(=O)NC1(Cc2ccccc2)CCN(C(=O)OC2C3CC4CC2CC(C(N)=O)(C4)C3)C1` (single isomer, unassigned) [Example 29 Isomer 2.2, (trans-1-carbamoyl-4-adamantyl) 3-benzyl-3-(tert-butoxycarbonylamino)pyrrolidine-1-carboxylate], in experiment [2], the “Biological Test Example 2 Average % inhibition at 100 nm” value worked out at 89.3%. The IC50 in experiment [3] is < 100 nM.

In the case of `CC(C)(C)OC(=O)N1CCCC12CCN(C(=O)OC1C3CC4CC1CC(C(N)=O)(C4)C3)C2` (single isomer, unassigned) [Example 30 Isomer 1, 1-tert-butyl 7-(cis-1-carbamoyl-4-adamantyl) 1,7-diazaspiro[4.4]nonane-1,7-dicarboxylate], the “Biological Test Example 2 Average % inhibition at 100 nm” value in experiment [2] turned out to be 15.9%. In experiment [3], the IC50 is > 100 nM.

As for `CC(C)(C)OC(=O)N1CCCC12CCN(C(=O)OC1C3CC4CC1CC(C(N)=O)(C4)C3)C2` (single isomer, unassigned) [Example 30 Isomer 2, 1-tert-butyl 7-(trans-1-carbamoyl-4-adamantyl) 1,7-diazaspiro[4.4]nonane-1,7-dicarboxylate], the “Biological Test Example 2 Average % inhibition at 100 nm” value in experiment [2] worked out at 91.3%. In experiment [3], the half-maximal inhibitory concentration (IC50) was < 100 nM.

With `NC(=O)C12CC3CC(C1)C(OC(=O)N1CC[C@@H](Nc4ncccn4)C1)C(C3)C2` (single isomer, unassigned) [Example 62 Isomer 1], in experiment [2], the “Biological Test Example 2 Average % inhibition at 100 nm” value worked out at 40.8%. Besides, in experiment [3], the half-maximal inhibitory concentration (IC50) was < 100 nM.

Consider `CNC(=O)C12CC3CC(C1)C(OC(=O)N1CC[C@@H](Nc4ccc(C#N)cn4)C1)C(C3)C2` (single isomer, unassigned) [Example 114 Isomer 1], for which the “Biological Test Example 2 Average % inhibition at 100 nm” value in experiment [2] is 11.8%. Moreover, the half-maximal inhibitory concentration (IC50) in experiment [3] is > 100 nM.

`CNC(=O)C12CC3CC(C1)C(OC(=O)N1CC[C@@H](Nc4ccc(C#N)cn4)C1)C(C3)C2` (single isomer, unassigned) [Example 114 Isomer 2]: the “Biological Test Example 2 Average % inhibition at 100 nm” value in experiment [2] is 58.4%. For the same compound, in experiment [3], the 50% inhibitory concentration (IC50) is < 100 nM.

On to `N#Cc1ccc(N[C@@H]2CCN(C(=O)OC3C4CC5CC3CC(C(=O)NC3CCCCC3)(C5)C4)C2)nc1` (single isomer, unassigned) [Example 117 Isomer 1], for which the “Biological Test Example 2 Average % inhibition at 100 nm” value in experiment [2] turned out to be 17.85%. Moreover, in experiment [3], the IC50 is > 100 nM.

In the case of `N#Cc1ccc(N[C@@H]2CCN(C(=O)OC3C4CC5CC3CC(C(=O)NC3CCCCC3)(C5)C4)C2)nc1` (single isomer, unassigned) [Example 117 Isomer 2], the “Biological Test Example 2 Average % inhibition at 100 nm” value in experiment [2] turned out to be 63.1%. For the same compound, the IC50 in experiment [3] is < 100 nM.

As to `CC(C)(C)OC(=O)NCC1CN(C(=O)OC2C3CC4CC(C3)CC2C4)C1` (stereo not drawn) [Example 1, 2-adamantyl 3-((tert-butoxycarbonylamino)methyl)azetidine-1-carboxylate], in experiment [1], the half-inhibitory concentration (IC50) was < 100 nM.

As for `CC(C)(C)OC(=O)N[C@@H]1CCCN(C(=O)OC2C3CC4CC(C3)CC2C4)C1` (stereo partly drawn) [Example 8, (3R)-(2-adamantyl) 3-(tert-butoxycarbonylamino)piperidine-1-carboxylate], in experiment [1], the IC50 is < 100 nM.

`CC(C)(C)OC(=O)N[C@@H]1CCN(C(=O)NC2C3CC4CC(C3)CC2C4)C1` (stereo partly drawn) [Example 46, (R)-tert-butyl 1-(2-adamantylcarbamoyl)pyrrolidin-3-ylcarbamate]: in experiment [1], the IC50 was < 100 nM.

With `CC(C)(C)OC(=O)N[C@H]1CCN(C(=O)NC2C3CC4CC(C3)CC2C4)C1` (stereo partly drawn) [Example 47, (S)-tert-butyl 1-(2-adamantylcarbamoyl)pyrrolidin-3-ylcarbamate], the IC50 in experiment [1] fell in the range of 100 to 1000 nM.

On to `COC(=O)N[C@@H]1CCN(C(=O)NC2C3CC4CC(C3)CC2C4)C1` (stereo partly drawn) [Example 48, (R)-methyl 1-(2-adamantylcarbamoyl)pyrrolidin-3-ylcarbamate], for which, in experiment [1], the IC50 fell in the range of 100 to 1000 nM.

For the compound `CC(C)(C)OC(=O)NC1CN(C(=O)NC2C3CC4CC(C3)CC2C4)C1` (stereo not drawn) [Example 51, tert-butyl 1-(2-adamantylcarbamoyl)azetidin-3-ylcarbamate], the IC50 in experiment [1] was < 100 nM.
